Reference: patent US20250188057A1, “NON-AROMATIC CYCLIC-PYRIMIDINE ANALOGS AS GLUCOSYLCERAMIDE SYNTHASE INHIBITORS” (Merck Sharp & Dohme LLC, priority 2022, published 2025)

Test system: GD and PD patient-derived induced pluripotent stem cell (iPSC) neurons
Assay: not given
Conditions: Zunke, F. et al., Neuron 2018; cited from earlier work

Row | Compound | formation of pathological α-synuclein aggregates
1 | CCCCCCCC(=O)N[C@H](CN1CCCC1)[C@H](O)c1ccc2c(c1)OCCO2 [eliglustat, Eliglustat] | reverse the formation of pathological α-synuclein aggregates

Molecular target: glucosylceramide synthase (GCS) (Homo sapiens (Human), UniProt Q16739)
Assay: UDP-Glo glucosylceramide synthase biochemical assay
Conditions: endogenous GCS in Golgi preparations isolated from human A375 malignant melanoma skin cells; UDP detection by luminescence
Outline: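 Endogenous GCS in A375 Golgi preparations (1.5 μg total protein) was preincubated with compound for 30 min at RT, then reacted with UDP-glucose and ceramide for 20 h at RT. UDP was detected by luciferase luminescence, normalized to DMSO and reference-inhibitor controls, with EC50 and % Emax from a 4PL fit.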

Chain of glucosylceramide synthase (GCS) (Q16739 whole entry): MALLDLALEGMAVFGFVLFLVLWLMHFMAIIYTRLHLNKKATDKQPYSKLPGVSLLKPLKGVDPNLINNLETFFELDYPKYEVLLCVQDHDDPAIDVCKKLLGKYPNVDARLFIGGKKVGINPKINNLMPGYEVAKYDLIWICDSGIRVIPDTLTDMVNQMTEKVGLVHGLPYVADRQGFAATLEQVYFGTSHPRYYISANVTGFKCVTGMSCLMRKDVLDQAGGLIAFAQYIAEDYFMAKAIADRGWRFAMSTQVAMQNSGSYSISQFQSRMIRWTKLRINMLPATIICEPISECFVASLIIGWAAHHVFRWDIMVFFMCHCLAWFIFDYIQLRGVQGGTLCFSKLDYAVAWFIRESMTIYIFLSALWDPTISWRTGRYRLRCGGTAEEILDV

Row | Compound | IC50 [nM]
2 | N#Cc1cnc(C2CC2)nc1OC[C@H]1CCN(c2ccc(OC(F)F)cn2)C1 [Compound 29, (S)-2-cyclopropyl-4-((1-(5-(difluoromethoxy)pyridin-2-yl)pyrrolidin-3-yl)methoxy)pyrimidine-5-carbonitrile] | 148
3 | OCc1c(Cl)nc(C2CC2)nc1N1Cc2nc(Br)sc2C1 [Compound 111, (4-(2-bromo-4,6-dihydro-5H-pyrrolo[3,4-d]thiazol-5-yl)-6-chloro-2-cyclopropylpyrimidin-5-yl)methanol] | 3260
4 | N#Cc1cnc(C2CC2)nc1N1Cc2cccn3c(C(=O)NCC4CC4)cc(c23)C1 [Compound 65, 2-(5-cyano-2-cyclopropylpyrimidin-4-yl)-N-(cyclopropylmethyl)-2,3-dihydro-1H-pyrrrolo[3,2,1-ij][1,6]naphthyridine-5-carboxamide] | 119
5 | N#Cc1cnc(C2CC2)nc1OCC1CCN(c2ccccc2)C1 (centres unmarked) [Compound 100, 2-cyclopropyl-4-((1-phenylpyrrolidin-3-yl)methoxy)pyrimidine-5-carbonitrile] | 160
6 | N#Cc1cnc(C2CC2)nc1N(CC1CCC1)CC1CCCO1 (centres unmarked) [Compound 90, 4-((cyclobutylmethyl)((tetrahydrofuran-2-yl)methyl)amino)-2-cyclopropylpyrimidine-5-carbonitrile] | 1620
7 | Cc1cc(N2CC[C@H](COc3nc(C4CC4)ncc3C#N)C2)ncc1F [Compound 30, (S)-2-cyclopropyl-4-((1-(5-fluoro-4-methylpyridin-2-yl)pyrrolidin-3-yl)methoxy)pyrimidine-5-carbonitrile] | 1240
8 | N#Cc1cnc(C2CC2)nc1OC[C@H]1CCN(c2ccc(-n3cccn3)cc2)C1 [Compound 7, (S)-4-((1-(4-(1H-pyrazol-1-yl)phenyl)pyrrolidin-3-yl)methoxy)-2-cyclopropylpyrimidine-5-carbonitrile] | 4.3
9 | Cc1nc2c(s1)CCCC2Nc1nc(C2CC2)nc(C)c1C#N (centres unmarked) [Compound 124, 2-cyclopropyl-4-methyl-6-((2-methyl-4,5,6,7-tetrahydrobenzo[d]thiazol-4-yl)amino)pyrimidine-5-carbonitrile] | 422
10 | COc1ccc2c(c1)C(Nc1nc(C3CC3)ncc1C#N)CC2 (centres unmarked) [Compound 63, 2-cyclopropyl-4-((6-methoxy-2,3-dihydro-1H-inden-1-yl)amino)pyrimidine-5-carbonitrile] | 8.6
11 | N#Cc1cnc(C2CC2)nc1N1CCC2(CC1)Cc1cc(F)ccc1O2 [Compound 64, 2-cyclopropyl-4-(5-fluoro-3H-spiro[benzofuran-2,4′-piperidin]-1′-yl)pyrimidine-5-carbonitrile] | 1350
12 | N#Cc1cnc(C2CC2)nc1N1CCN(Cc2nc(-c3ccc(Cl)cc3)no2)CC1 [Compound 70, 4-(4-((3-(4-chlorophenyl)-1,2,4-oxadiazol-5-yl)methyl)piperazin-1-yl)-2-cyclopropylpyrimidine-5-carbonitrile] | 877
13 | Cc1nc(N2CC(c3nc4ccccc4n3C)C2)cc(N2CC(CC(C)C)CC2=O)n1 (centres unmarked) [Compound 117, 4-isobutyl-1-(2-methyl-6-(3-(1-methyl-1H-benzo[d]imidazol-2-yl)azetidin-1-yl)pyrimidin-4-yl)pyrrolidin-2-one] | 1140
14 | N#Cc1cnc(C2CC2)nc1N1C[C@@H]2C[C@H]1CN2Cc1ccc(Cl)cc1 [Compound 89, 4-((1S,4S)-5-(4-chlorobenzyl)-2,5-diazabicyclo[2.2.1]heptan-2-yl)-2-cyclopropylpyrimidine-5-carbonitrile] | 352
15 | CCC(C)c1nc2c(s1)CCCC2Nc1nc(C2CC2)nc(Cl)c1CO (centres unmarked) [Compound 116, (4-((2-(sec-butyl)-4,5,6,7-tetrahydrobenzo[d]thiazol-4-yl)amino)-6-chloro-2-cyclopropylpyrimidin-5-yl)methanol] | 3910
16 | N#Cc1cnc(C2CC2)nc1OCC1CCCN1Cc1ccc(F)cc1 (centres unmarked) [Compound 104, 2-cyclopropyl-4-((1-(4-fluorobenzyl)pyrrolidin-2-yl)methoxy)pyrimidine-5-carbonitrile] | 1870
17 | N#Cc1cnc(C2CC2)nc1N1CCN(Cc2ccccc2)C[C@@H]1COCc1ccccc1 [Compound 79, (R)-4-(4-bnezyl-2-((benzyloxy)methyl)piperazin-1-yl)-2-cyclopropylpyrimidine-5-carbonitrile] | 3260
18 | N#Cc1ccccc1C1CCN(c2nc(C3CC3)ncc2C#N)C1 (centres unmarked) [Compound 87, 4-(3-(2-cyanophenyl)pyrrolidin-1-yl)-2-cyclopropylpyrimidine-5-carbonitrile] | 218
19 | Cc1nc(N2CC(c3nc4ccccc4[nH]3)C2)cc(N2CC(CC(C)C)CC2=O)n1 (centres unmarked) [Compound 118, 1-(6-(3-(1H-benzo[d]imidazol-2-yl)azetidin-1-yl)-2-methylpyrimidin-4-yl)-4-isobutylpyrrolidin-2-one] | 2870
20 | N#Cc1cnc(C2CC2)nc1OC[C@H]1CCN(c2ccc(-c3cnco3)cc2)C1 [Compound 22, (S)-2-cyclopropyl-4-((1-(4-(oxazol-5-yl)phenyl)pyrrolidin-3-yl)methoxy)pyrimidine-5-carbonitrile] | 26
21 | N#Cc1cnc(C2CC2)nc1OC[C@H]1CCN(c2ccc(C(F)(F)F)nc2)C1 [Compound 44, (S)-2-cyclopropyl-4-((1-(6-(trifluoromethyl)pyridin-3-yl)pyrrolidin-3-yl)methoxy)pyrimidine-5-carbonitrile] | 140
22 | N#Cc1cnc(C2CC2)nc1OC[C@H]1CCN(c2sccc2C#N)C1 [Compound 14] | 141
23 | N#Cc1cnc(C2CC2)nc1NC1CN(C(c2ccccc2)c2ccccc2)C1 [Compound 92, 4-((1-benzhydrylazetidin-3-yl)amino)-2-cyclopropylpyrimidine-5-carbonitrile] | 2900
24 | N#Cc1cnc(C2CC2)nc1OC[C@H]1CCN(c2cccc(-c3ncco3)c2)C1 [Compound 9, (S)-2-cyclopropyl-4-((1-(3-(oxazol-2-yl)phenyl)pyrrolidin-3-yl)methoxy)pyrimidine-5-carbonitrile] | 826
25 | N#Cc1cnc(C2CC2)nc1OC[C@H]1CCN(c2cc(F)ncc2Cl)C1 [Compound 36, (S)-4-((1-(5-chloro-2-fluoropyridin-4-yl)pyrrolidin-3-yl)methoxy)-2-cyclopropylpyrimidine-5-carbonitrile] | 2570
26 | OCc1cnc(C2CC2)nc1OC[C@H]1CCN(c2ccc(C(F)(F)F)nc2)C1 [Compound 1, (S)-(2-cyclopropyl-4-((1-(6-(trifluoromethyl)pyridin-3-yl)pyrrolidin-3-yl)methoxy)pyrimidin-5-yl)methanol] | 579
27 | OCc1cnc(C2CC2)nc1OC[C@@H]1CN(c2ccc(C(F)(F)F)nc2)CCO1 [Compound 3, (S)-(2-cyclopropyl-4-((4-(6-(trifluoromethyl)pyridin-3-y)morpholin-2-yl)methoxy)pyrimidin-5-yl)methanol] | 2320
28 | N#Cc1cnc(C2CC2)nc1OC[C@H]1CCN(c2ccc(-n3ccnc3)cc2)C1 [Compound 31, (S)-4-((1-(4-(1H-imidazol-1-yl)phenyl)pyrrolidin-3-yl)methoxy)-2-cyclopropylpyrimidine-5-carbonitrile] | 28
29 | N#Cc1cnc(C2CC2)nc1OC[C@H]1CCN(C2CCC(F)(F)CC2)C1 [Compound 108, (S)-2-cyclopropyl-4-((1-(4,4-difluorocyclohexyl)pyrrolidin-3-yl)methoxy)pyrimidine-5-carbonitrile] | 3970
